Assay results: patent publication US20260015350A1, “AZAQUINAZOLINE PAN-KRAS INHIBITORS” (Mirati Therapeutics, Inc., priority 2022, published 2026)

Assays:
KRas^G12D = target: T1, KRas^G12D (Homo sapiens, UniProt P01116, G12D); test: KRas binding assay (TR-FRET tracer displacement), KRas G12D
T1 construct: Biotinylated KRas (corresponding to amino acids 1-169, produced at Accelegan Inc.); biotin (biotinylated); purchased Accelegan Inc

[1] = system: KRas-mediated phosphorylation of ERK in AsPC-1 cells; test: Inhibition of KRas-mediated phosphorylation of ERK (Cisbio HTRF pERK), AsPC-1 cells; format: cell-based; conditions: Homo sapiens, ASPC1, AsPC-1 cells; HTRF pERK
How it was run: (§1)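 Following a 3-hr exposure of cells to serially diluted compound (from 10 uM, 3-fold, 10 doses), cold lysis for 40 mins preceded a 2-hr room-temperature HTRF immunoassay for phosphorylated ERK.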

KRas^G12V = target: T2, KRas^G12V (Homo sapiens, UniProt P01116, G12V); test: KRas binding assay (TR-FRET tracer displacement), KRas G12V
T2 construct: Biotinylated KRas (corresponding to amino acids 1-169, produced at Accelegan Inc.); biotin (biotinylated); purchased Accelegan Inc
T2 sequence (P01116 1-169 isoform P01116-2 G12V): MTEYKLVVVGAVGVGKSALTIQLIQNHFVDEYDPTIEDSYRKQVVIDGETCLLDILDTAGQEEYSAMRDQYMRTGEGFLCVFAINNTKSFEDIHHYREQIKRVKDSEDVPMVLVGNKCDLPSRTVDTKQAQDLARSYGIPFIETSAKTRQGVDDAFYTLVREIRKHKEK

KRas^G12R = target: T3, KRas^G12R (Homo sapiens, UniProt P01116, G12R); test: KRas binding assay (TR-FRET tracer displacement), KRas G12R
T3 construct: Biotinylated KRas (corresponding to amino acids 1-169, produced at Accelegan Inc.); biotin (biotinylated); purchased Accelegan Inc
T3 sequence (P01116 1-169 isoform P01116-2 G12R): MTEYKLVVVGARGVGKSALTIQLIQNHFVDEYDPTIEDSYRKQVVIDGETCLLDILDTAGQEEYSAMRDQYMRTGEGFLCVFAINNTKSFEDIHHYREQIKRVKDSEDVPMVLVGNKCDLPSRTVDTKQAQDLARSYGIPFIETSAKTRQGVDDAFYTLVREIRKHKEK

[2] = system: KRas-mediated phosphorylation of ERK in H727 cells; test: Inhibition of KRas-mediated phosphorylation of ERK (Cisbio HTRF pERK), H727 cells; format: cell-based; conditions: Homo sapiens, NCI-H727, H727 cells; HTRF pERK
How it was run: as §1

T1 sequence (P01116 1-169 isoform P01116-2 G12D): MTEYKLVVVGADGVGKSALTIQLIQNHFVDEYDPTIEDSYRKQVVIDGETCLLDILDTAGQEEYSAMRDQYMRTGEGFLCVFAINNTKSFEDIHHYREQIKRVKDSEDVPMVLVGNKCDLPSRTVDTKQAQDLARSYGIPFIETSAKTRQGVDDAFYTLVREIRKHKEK

IC50 (KRas^G12D) [nM] | IC50 [1] [nM] | IC50 (KRas^G12V) [nM] | IC50 (KRas^G12R) [nM] | IC50 [2] [nM] | SMILES
810 | 9330 | 244 | 71 | 5300 | CCc1c(F)ccc2cc(O)cc(-c3ncc4c(N5CCC6CCCC5C6)nc(OC[C@@]56CCCN5C[C@H](F)C6)nc4c3F)c12 (stereo partly drawn) [Example 552, 4-(4-(2-azabicyclo[3.3.1]nonan-2-yl)-8-fluoro-2-(((2R,7aS)-2-fluorotetrahydro-1H-pyrrolizin-7a(5H)-yl)methoxy)pyrido[4,3-d]pyrimidin-7-yl)-5-ethyl-6-fluoronaphthalen-2-ol]
1970 | > 10000 | 266 | 162 | 4190 | CCc1c(F)ccc2cc(O)cc(-c3ncc4c(N5CC6(CO)CC5CCO6)nc(OC[C@@]56CCCN5C[C@H](F)C6)nc4c3F)c12 (stereo partly drawn) [Example 572, 5-ethyl-6-fluoro-4-(8-fluoro-2-(((2R,7aS)-2-fluorohexahydro-1H-pyrrolizin-7a-yl)methoxy)-4-(1-(hydroxymethyl)-2-oxa-6-azabicyclo[3.2.1]octan-6-yl)pyrido[4,3-d]pyrimidin-7-yl)naphthalen-2-ol]
29 | 8440 | 606 | 727 | > 10000 | CCc1c(F)ccc2cc(O)cc(-c3ncc4c(N[C@H](C)CN5CC(C)(O)C5)nc(OC[C@@]56CCCN5C[C@H](F)C6)nc4c3F)c12 [Example 577, 1-((R)-2-((7-(8-ethyl-7-fluoro-3-hydroxynaphthalen-1-yl)-8-fluoro-2-(((2R,7aS)-2-fluorohexahydro-1H-pyrrolizin-7a-yl)methoxy)pyrido[4,3-d]pyrimidin-4-yl)amino)propyl)-3-methylazetidin-3-ol]
38 | 1540 | 16 | 12 | 731 | CCc1c(F)ccc2cc(O)cc(-c3ncc4c(N5CCCC6(CC=CCO6)C5)nc(OC[C@@]56CCCN5C[C@H](F)C6)nc4c3F)c12 (stereo partly drawn) [Example 589, 5-ethyl-6-fluoro-4-(8-fluoro-2-(((2R,7aS)-2-fluorotetrahydro-1H-pyrrolizin-7a(5H)-yl)methoxy)-4-(1-oxa-8-azaspiro[5.5]undec-3-en-8-yl)pyrido[4,3-d]pyrimidin-7-yl)naphthalen-2-ol]
805 | > 10000 | 94 | 434 | 2450 | CCc1c(F)ccc2cc(O)cc(-c3ncc4c(N5CCC(CC6CCOC6)C5)nc(OC[C@@]56CCCN5C[C@H](F)C6)nc4c3F)c12 (stereo partly drawn) [Example 596, 5-ethyl-6-fluoro-4-(8-fluoro-2-(((2R,7aS)-2-fluorohexahydro-1H-pyrrolizin-7a-yl)methoxy)-4-(3-((tetrahydrofuran-3-yl)methyl)pyrrolidin-1-yl)pyrido[4,3-d]pyrimidin-7-yl)naphthalen-2-ol]

Second part, the molecule before the results:

SMILES | IC50 (KRas^G12D) [nM] | IC50 [1] [nM] | IC50 (KRas^G12V) [nM] | IC50 (KRas^G12R) [nM] | IC50 [2] [nM]
CCc1c(F)ccc2cc(O)cc(-c3ncc4c(NCC5CNC(=O)CO5)nc(OC[C@@]56CCCN5C[C@H](F)C6)nc4c3F)c12 (stereo partly drawn) [Example 556, 6-(((7-(8-ethyl-7-fluoro-3-hydroxynaphthalen-1-yl)-8-fluoro-2-(((2R,7aS)-2-fluorotetrahydro-1H-pyrrolizin-7a(5H)-yl)methoxy)pyrido[4,3-d]pyrimidin-4-yl)amino)methyl) morpholin-3-one] | 10 | > 10000 | 2 | < 2 | 2510
CCc1c(F)ccc2cc(O)cc(-c3ncc4c(N5CCC(n6cnnc6)C5)nc(OC[C@@]56CCCN5C[C@H](F)C6)nc4c3F)c12 (stereo partly drawn) [Example 564, 4-(4-(3-(4H-1,2,4-triazol-4-yl)pyrrolidin-1-yl)-8-fluoro-2-(((2R,7aS)-2-fluorotetrahydro-1H-pyrrolizin-7a(5H)-yl)methoxy)pyrido[4,3-d]pyrimidin-7-yl)-5-ethyl-6-fluoronaphthalen-2-ol] | 640 | > 10000 | 16 | 31 | > 10000
CCc1c(F)ccc2cc(O)cc(-c3ncc4c(N5CC6(C)CC(CO)(C5)C6)nc(OC[C@@]56CCCN5C[C@H](F)C6)nc4c3F)c12 [Example 565, 5-ethyl-6-fluoro-4-(8-fluoro-2-(((2R,7aS)-2-fluorohexahydro-1H-pyrrolizin-7a-yl)methoxy)-4-(1-(hydroxymethyl)-5-methyl-3-azabicyclo[3.1.1]heptan-3-yl)pyrido[4,3-d]pyrimidin-7-yl)naphthalen-2-ol] | 1160 | > 10000 | 908 | 1030 | > 10000
CCc1c(F)ccc2cc(O)cc(-c3ncc4c(N5CCN6C[C@@H](O)C[C@H]6C5)nc(OC[C@@]56CCCN5C[C@H](F)C6)nc4c3F)c12 [Example 567, (7S,8aS)-2-(7-(8-ethyl-7-fluoro-3-hydroxynaphthalen-1-yl)-8-fluoro-2-(((2R,7aS)-2-fluorohexahydro-1H-pyrrolizin-7a-yl)methoxy)pyrido[4,3-d]pyrimidin-4-yl) octahydropyrrolo[1,2-a]pyrazin-7-ol] | 682 | > 10000 | 2430 | 1460 | > 10000
CCc1c(F)ccc2cc(O)cc(-c3ncc4c(NC56CCC(C#N)(CC5)CC6)nc(OC[C@@]56CCCN5C[C@H](F)C6)nc4c3F)c12 [Example 585, 4-((7-(8-ethyl-7-fluoro-3-hydroxynaphthalen-1-yl)-8-fluoro-2-(((2R,7aS)-2-fluorohexahydro-1H-pyrrolizin-7a-yl)methoxy)pyrido[4,3-d]pyrimidin-4-yl)amino)bicyclo[2.2.2]octane-1-carbonitrile] | 434 | 4610 | 103 | 76 | 2060
CCc1c(F)ccc2cc(O)cc(-c3ncc4c(N5Cc6n[nH]c(C(N)=O)c6C5)nc(OC[C@@]56CCCN5C[C@H](F)C6)nc4c3F)c12 [Example 588, 5-(7-(8-ethyl-7-fluoro-3-hydroxynaphthalen-1-yl)-8-fluoro-2-(((2R,7aS)-2-fluorotetrahydro-1H-pyrrolizin-7a(5H)-yl)methoxy)pyrido[4,3-d]pyrimidin-4-yl)-2,4,5,6-tetrahydropyrrolo[3,4-c]pyrazole-3-carboxamide] | 1780 | > 10000 | 314 | 621 | > 10000
CCc1c(F)ccc2cc(O)cc(-c3ncc4c(N5CCC(CC6CCCO6)C5)nc(OC[C@@]56CCCN5C[C@H](F)C6)nc4c3F)c12 (stereo partly drawn) [Example 597, 5-ethyl-6-fluoro-4-(8-fluoro-2-(((2R,7aS)-2-fluorotetrahydro-1H-pyrrolizin-7a(5H)-yl)methoxy)-4-(3-((tetrahydrofuran-2-yl)methyl)pyrrolidin-1-yl)pyrido[4,3-d]pyrimidin-7-yl)naphthalen-2-ol] | 867 | 4800 | 82 | 194 | 2360
CCc1c(F)ccc2cc(O)cc(-c3ncc4c(N5CCC6(CNC(=O)OC6)C5)nc(OC[C@@]56CCCN5C[C@H](F)C6)nc4c3F)c12 (stereo partly drawn) [Example 598, 2-(7-(8-ethyl-7-fluoro-3-hydroxynaphthalen-1-yl)-8-fluoro-2-(((2R,7aS)-2-fluorotetrahydro-1H-pyrrolizin-7a(5H)-yl)methoxy)pyrido[4,3-d]pyrimidin-4-yl)-7-oxa-2,9-diazaspiro[4.5]decan-8-one] | 820 | > 10000 | 84 | 66 | > 10000
CCc1c(F)ccc2cc(O)cc(-c3ncc4c(N5C6CNC(=O)CC5COC6)nc(OC[C@@]56CCCN5C[C@H](F)C6)nc4c3F)c12 (stereo partly drawn) [Example 599, 10-(7-(8-ethyl-7-fluoro-3-hydroxynaphthalen-1-yl)-8-fluoro-2-(((2R,7aS)-2-fluorohexahydro-1H-pyrrolizin-7a-yl)methoxy)pyrido[4,3-d]pyrimidin-4-yl)-8-oxa-3,10-diazabicyclo[4.3.1]decan-4-one] | 2120 | > 10000 | 85 | 23 | > 10000
CCc1c(F)ccc2cc(O)cc(-c3ncc4c(N5CCC6(CC5)OCCC6O)nc(OC[C@@]56CCCN5C[C@H](F)C6)nc4c3F)c12 (stereo partly drawn) [Example 600, 8-(7-(8-ethyl-7-fluoro-3-hydroxynaphthalen-1-yl)-8-fluoro-2-(((2R,7aS)-2-fluorotetrahydro-1H-pyrrolizin-7a(5H)-yl)methoxy)pyrido[4,3-d]pyrimidin-4-yl)-1-oxa-8-azaspiro[4.5]decan-4-ol] | 5040 | > 10000 | 880 | 886 | > 10000
CCc1c(F)ccc2cc(O)cc(-c3ncc4c(N5CCOC[C@@](C)(COC)C5)nc(OC[C@@]56CCCN5C[C@H](F)C6)nc4c3F)c12 [Example 602, 5-ethyl-6-fluoro-4-(8-fluoro-2-(((2R,7aS)-2-fluorotetrahydro-1H-pyrrolizin-7a(5H)-yl)methoxy)-4-((R)-6-(methoxymethyl)-6-methyl-1,4-oxazepan-4-yl)pyrido[4,3-d]pyrimidin-7-yl)naphthalen-2-ol] | 484 | 5460 | 243 | 161 | 3870
